One compound from patent US11072592B2, “Small molecules that enable cartilage rejuvenation” (The Regents of the University of California, priority 2015, dated 2021) can be followed below.

In one series the test system is p-STAT3/c-MYC. The experiment in a line: Secondary screening for effects on p-STAT3/c-MYC protein levels. The series is classed as cell-based. Conditions: secondary screening of 75 compounds. How it is done:
(§1) In a clinical setting, treatment with exogenous growth factors would present a difficult and expensive strategy. To address this, our group designed a high throughput screen to identify small molecule modulators of chondrogenic differentiation based on the prevention of the hypertrophy-associated marker collagen X (COLX). […] Importantly, the stimulatory effect of CRMs on p-STAT3 and c-MYC was reversible; protein levels of both p-STAT-3 and c-MYC decreased 48 hours after CRM-398 or -423 withdrawal (data not shown). Identification of such compounds can not only allow us to control differentiation of chondrocytes, but also manipulate the expression of STAT3 and c-MYC to achieve rejuvenation of adult chondrocytes. CRM-398 and -423 can be tested in parallel with LIF and their effects on adult articular chondrocyte activation can be assessed as described herein.
A strategy for screening for molecules with anti-differentiation effects includes observation of primary limb mesenchyme from mCherry-COL10A1 mice. The screening strategy identifies molecules with STAT3 and c-Myc modulatory activity. FIG. 14 depicts exemplary results for a screening conducted on 170,000 compounds, resulting in 469 hits. FIG. 15 depicts percentage positive z-scores for the 469 compounds identified. FIG. 16 depicts a further screening analysis of the previously identified 469 hit compounds, resulting in 75 refined hits. […]

For another series, the system named is human fetal chondrocytes. Kind of series: Chondrocyte terminal differentiation (COLX expression, alkaline phosphatase) in human fetal chondrocytes. The series is classed as cell-based. An excerpt: From a therapeutic and regulatory standpoint, small molecules represent a highly attractive modality for manipulating cell biology. To this end, we conducted a high throughput screen to discover small molecules that regulate chondrocyte differentiation. As a readout for the screen, we chose mice carrying a transgenic mCherry reporter (Maye et al., 2011) for expression of Col10a1 (COL10). COL10 expression, along with alkaline phosphatase (AP) levels, increases during later stages of chondrocyte differentiation, concomitant with withdrawal from the cell cycle. […] To conduct the screen, total limb cells were isolated from Col10a1-mCherry transgenic embryos and cultured in the presence of BMP-4, a driver of chondrocyte hypertrophy (Wu et al., 2013); 170,000 compounds were assayed for their ability to decrease the mCherry signal in live cells under these conditions (FIG. 27A). Out of this first dataset, 469 molecules were selected for confirmatory screening. This number was further reduced to 75 verified compounds that blocked increases in mCherry signal (FIG. 27B). Additional vetting led to the selection of Regulator of Cartilage Growth and Differentiation (RCGD) 423 as the primary compound for continued characterization. The ability of RCGD 423 to inhibit COL10 expression in human cells was confirmed, and AP activity was employed as a supplemental readout of chondrocyte differentiation.
Cells were fixed with 3.7% formaldehyde and stained for alkaline phosphatase activity with SigmaFast 5-bromo-4-chloro-3-indolyl phosphate/4-nitro blue tetrazolium (BCIP/NBT) (Sigma Aldrich, St. Louis, Mo.) according to the manufacturer's protocol.

Another series relates to chondrocyte cultures. The experiment in a line: Toxicity in chondrocyte cultures. The series is classed as cell-based. The method, then:
as §1

A further series deals with BMPR1B+ chondrocytes. The experiment in a line: Retention of BMPR1B+ chondrocytes in culture (flow cytometry). The series is classed as cell-based, pig. How it is done: FIG. 35. RCGD 423 Preserves BMPR1B+ Chondrocytes in Culture. Adult pig chondrocytes were cultured in the presence of various cytokines or RCGD 423 and the number of cells expressing BMPR1B were quantitated using flow cytometry. Know mitogens for cartilage, including PDGF-BB and FGF2, promoted dramatic loss of BMPR1B^+ cells. In contrast, RCGD 423 and LIF acted to maintain cells with the BMPR1B+ phenotype.
BMPR1B+LIFR+ human adult articular chondrocytes were sorted using FACS and deposited in 96-well culture plates at density 10,000 cells per well in DMEM/F12 culture medium (Invitrogen) supplemented with 1% FBS. Growth factors or RCGD 423 were added at the time of plating. After 1, 3 and 7 days cultures were re-analyzed with FACS using an antibody against BMPR1B.
(In general: A flow cytometer gives signals particle by particle.)

Series [1] concerns pSTAT3 and MYC. The experiment in a line: Duration of pSTAT3/MYC induction after wash out or release from PLGA microspheres. As to conditions: drug applied 24 hours, then washed out. Type of series: cell-based, pig. The method, then: FIGS. 31A-31D. […] (FIG. 31A) Experiments were conducted to test the tissue reparative function of compounds disclosed herein. FIG. 31A depicts histograms of amounts of glycosaminoglycans (GAGs) and collagen 2 observed under control conditions and after administration of RCGD 423. (FIG. 31B) The duration of the effects elicited by RCGD 423 was determined by applying the drug for 24 hours and then washing it out. Protein levels of pSTAT3 and MYC were determined at the indicated time points after wash out; histone H3 was used as a loading control. (FIG. 31C) Protein levels of MYC and pSTAT3 in adult pig articular chondrocytes were used to determine the time frame in which release of RCGD 423 from PLGA microspheres reaches efficacious levels. Supernatant from drug-loaded PLGA microspheres was harvested at the indicated intervals and applied to pig chondrocytes. Histone H3 was used as a loading control. (FIG. 31D) Repair in a tissue context was assessed by removing small explants from a biopsy punch of adult pig articular cartilage. Matrigel with or without RCGD 423-loaded microspheres was applied to the defects. Safranin O staining was performed on sections of explants following 5 weeks of culture; border of defect and intact tissue is shown.
We also tested whether RCGD 423 could initiate healing of small defects generated on the surface of intact articular cartilage. […]

In a further series the test system is adult chondrocytes. Kind of series: Collagen 2 production by adult chondrocytes. The series is classed as cell-based. Conditions: compared with control (DMSO). From the text: FIGS. 21A-21B. […] (FIG. 21A) cell sorting results for isotype (left), BMPR18^neg (middle), and BMPR18+ cells (right). (FIG. 21B) CRM-423 (right panel) stimulates collagen 2 product by adult chondrocytes compared with control (DMSO, left panel).
Cmpd 423 stimulates collagen 2 product by adult chondrocytes (FIG. 21B).

Series [2] concerns pSTAT3 and MYC. The experiment in a line: pSTAT3 and MYC in other cells/tissues. Type of series: cell-based. Conditions: embryonic stem cells and the heart; unpublished preliminary data. From the text:
Based on the functional properties elicited by RCGD 423, we propose that it (or compounds functionally similar to it) may represent core components of treatment regimens for articular cartilage injury.

Take `Brc1ccc(Nc2nc(-c3ccccc3)cs2)cc1` [RCGD 423, N-(4-Bromophenyl)-4-phenyl-1,3-thiazol-2-amine]: in the series with p-STAT3/c-MYC, the “effects on p-STAT3/c-MYC protein levels” value is given as “most prominent effects”. Besides, the “COL10 expression in human cells” value with human fetal chondrocytes is “inhibit”. Also, the “alkaline phosphatase (AP) levels” value with human fetal chondrocytes (fetal cartilage treated with BMP-4) is recorded as “significantly reduced”. Moreover, the “terminal differentiation (COLX expression)” value in the series with human fetal chondrocytes (human fetal chondrocytes, 1 μM) is on record as “significant inhibition”. Also, the “toxicity in chondrocyte cultures” value in the series on chondrocyte cultures is “no toxicity”. In addition, the “BMPR1B+ chondrocytes in culture” value with BMPR1B+ chondrocytes is “helped maintain”. The “time after drug removal at which increases in pSTAT3 and MYC are observed” value with pSTAT3 and MYC [1] is recorded as “up to 7 days”. Besides, the “collagen 2 production by adult chondrocytes” value in the series with adult chondrocytes is “stimulates”. The “pSTAT3 and MYC proteins in other cells/tissues” value with pSTAT3 and MYC [2] is listed as “promotes increases”.
